Among the data in ChEMBL document CHEMBL3232777, “QSAR models for HEPT derivates as NNRTI inhibitors based on Monte Carlo method” (Eur J Med Chem, 2014) are IC50 values, retold here.

Molecules are shown by their SMILES.

The subject of the assay is Human immunodeficiency virus 1. Description: Antiviral activity against HIV1 3B infected in human MT4 cells assessed as protection from cytopathic effect. Format: functional, organism-based. The conditions noted are these: Human immunodeficiency virus 1, 3B. On the technique in general: Cytopathic effects are the visible damage that an infection or toxin causes in cultured cells.
Take `Cc1c(Sc2ccc(Cl)cc2)n(COCCO)c(=O)[nH]c1=O`: the IC50 (commonly the concentration needed to halve the response being measured) came to 251 µM.

For `Cc1c(Sc2cccc(CO)c2)n(COCCO)c(=O)[nH]c1=O`, the IC50 was 295 µM.

For the molecule `Cc1c(Sc2cc(Cl)cc(Cl)c2)n(COCCO)c(=O)[nH]c1=O`, the IC50 was determined as 1.29 µM.

Take `Cc1c(Sc2ccc(C#N)cc2)n(COCCO)c(=O)[nH]c1=O`: the IC50 is 251 µM.

As to `Cc1c(Sc2ccccc2Cl)n(COCCO)c(=O)[nH]c1=O`, the IC50 was found to be 129 µM.

In the case of `CC(=O)c1ccc(Sc2c(C)c(=O)[nH]c(=O)n2COCCO)cc1`, the IC50 was found to be 110 µM.

Turning to `Cc1c(Sc2ccc([N+](=O)[O-])cc2)n(COCCO)c(=O)[nH]c1=O`, the concentration for half-maximal inhibition (IC50) was 191 µM.

On to `O=c1[nH]c(=O)n(COCCO)c(Sc2ccccc2)c1Sc1ccccc1`, for which the IC50 worked out at 20.9 µM.

For the molecule `COc1ccc(Sc2c(C)c(=O)[nH]c(=O)n2COCCO)cc1`, the half-maximal inhibitory concentration (IC50) worked out at 251 µM.

In the case of `CC(=O)c1cccc(Sc2c(C)c(=O)[nH]c(=O)n2COCCO)c1`, the IC50 is 7.24 µM.

As for `O=C(Nc1ccccc1)c1c(Sc2ccccc2)n(COCCO)c(=O)[nH]c1=O`, the IC50 stood at 18.2 µM.

With `Cc1c(Sc2ccc(O)cc2)n(COCCO)c(=O)[nH]c1=O`, the IC50 is 275 µM.

On to `Cc1c(Sc2ccc(F)cc2)n(COCCO)c(=O)[nH]c1=O`, for which the IC50 was 251 µM.

In the case of `O=c1[nH]c(=O)n(COCCO)c(Sc2ccccc2)c1C#Cc1ccccc1`, the IC50 was 3.39 µM.

For `C=Cc1c(Sc2ccccc2)n(COCCO)c(=O)[nH]c1=O`, the IC50 amounted to 2.04 µM.

As to `Cc1c(Sc2cccc(C(=O)O)c2)n(COCCO)c(=O)[nH]c1=O`, the IC50 turned out to be 355 µM.

As for `O=c1[nH]c(=O)n(COCCO)c(Sc2ccccc2)c1C=C(c1ccccc1)c1ccccc1`, the IC50 came to 0.851 µM.

Consider `C#Cc1c(Sc2ccccc2)n(COCCO)c(=O)[nH]c1=O`, for which the IC50 stood at 18.2 µM.

As for `O=c1[nH]c(=O)n(COCCO)c(Sc2ccccc2)c1I`, the IC50 was determined as 3.63 µM.

With `O=c1[nH]c(=O)n(COCCO)c(Sc2ccccc2)c1/C=C/c1ccccc1`, the IC50 came to 6.03 µM.

With `CCc1c(Sc2ccccc2)n(COCC2CCCCC2)c(=O)[nH]c1=O`, the 50% inhibitory concentration (IC50) amounted to 0.447 µM.

Consider `CCc1c(Sc2ccccc2)n(COCCc2ccccc2)c(=O)[nH]c1=O`, for which the IC50 came to 0.0955 µM.

Regarding `CC(C)c1c(Sc2ccccc2)n(COCc2ccccc2)c(=S)[nH]c1=O`, the half-maximal inhibitory concentration (IC50) was determined as 0.00724 µM.

Regarding `CCOCn1c(Sc2ccccc2)c(C(C)C)c(=O)[nH]c1=S`, the concentration for half-maximal inhibition (IC50) was found to be 0.0129 µM.

Take `CCc1c(Sc2ccccc2)n(COCc2ccccc2)c(=S)[nH]c1=O`: the IC50 came out at 0.00813 µM.

With `CCc1c(Sc2ccccc2)n(COCCc2ccccc2)c(=S)[nH]c1=O`, the IC50 was found to be 0.0912 µM.

Consider `CCc1c(Sc2ccccc2)n(COCc2ccc(C)cc2)c(=S)[nH]c1=O`, for which the concentration for half-maximal inhibition (IC50) was 0.0776 µM.

In the case of `CCc1c(Sc2cc(C)cc(C)c2)n(COCc2ccccc2)c(=S)[nH]c1=O`, the IC50 came out at 0.00724 µM.

With `CCOCn1c(Sc2cc(C)cc(C)c2)c(CC)c(=O)[nH]c1=O`, the half-inhibitory concentration (IC50) was found to be 0.00575 µM.

As for `CCc1c(Sc2ccccc2)n(COCC2CCCCC2)c(=S)[nH]c1=O`, the half-maximal inhibitory concentration (IC50) worked out at 0.355 µM.

As to `CCCCOCn1c(Sc2ccccc2)c(C)c(=O)[nH]c1=O`, the IC50 was 4.68 µM.

With `CCCCCOCCOCn1c(Sc2ccccc2)c(C)c(=O)[nH]c1=O`, the IC50 worked out at 34.7 µM.

For the molecule `CCc1c(Sc2ccccc2)n(COC(C)C)c(=O)[nH]c1=O`, the half-maximal inhibitory concentration (IC50) was 0.339 µM.

Regarding `Cc1cccc(Sc2c(C)c(=O)[nH]c(=O)n2COCCO)c1`, the IC50 came to 2.57 µM.

On to `Cc1c(Sc2cccc(I)c2)n(COCCO)c(=O)[nH]c1=O`, for which the IC50 was found to be 10 µM.

For the molecule `Cc1ccc(Sc2c(C)c(=O)[nH]c(=O)n2COCCO)cc1`, the IC50 was 219 µM.

As to `COC(=O)c1cccc(Sc2c(C)c(=O)[nH]c(=O)n2COCCO)c1`, the IC50 stood at 7.94 µM.

Consider `CCc1c(Sc2cc(C)cc(C)c2)n(COCCO)c(=S)[nH]c1=O`, for which the IC50 is 0.00776 µM.

For the molecule `Cc1c(Sc2cccc([N+](=O)[O-])c2)n(COCCO)c(=O)[nH]c1=O`, the IC50 turned out to be 33.9 µM.

On to `CCCc1c(Sc2ccccc2)n(COCCO)c(=O)[nH]c1=O`, for which the IC50 stood at 3.39 µM.

Take `CCc1c(Sc2cc(Cl)cc(Cl)c2)n(COCCO)c(=S)[nH]c1=O`: the IC50 stood at 0.0427 µM.

For the molecule `COc1cccc(Sc2c(C)c(=O)[nH]c(=O)n2COCCO)c1`, the IC50 is 21.9 µM.

As for `Cc1cc(C)cc(Sc2c(C(C)C)c(=O)[nH]c(=S)n2COCCO)c1`, the IC50 came out at 0.00501 µM.

On to `Cc1c(Sc2ccccc2[N+](=O)[O-])n(COCCO)c(=O)[nH]c1=O`, for which the IC50 was 141 µM.

As for `C=CCc1c(Sc2ccccc2)n(COCCO)c(=O)[nH]c1=O`, the IC50 came to 2.51 µM.

With `CC(C)c1c(Sc2ccccc2)n(COCCO)c(=O)[nH]c1=O`, the IC50 was 0.0631 µM.

Take `Cc1c(Sc2cccc(C(C)(C)C)c2)n(COCCO)c(=O)[nH]c1=O`: the IC50 amounted to 12 µM.

For `CC(C)c1c(Sc2ccccc2)n(COCCO)c(=S)[nH]c1=O`, the IC50 came out at 0.0589 µM.

For the molecule `Cc1c(Sc2cccc(F)c2)n(COCCO)c(=O)[nH]c1=O`, the IC50 was determined as 3.31 µM.

On to `COc1ccccc1Sc1c(C)c(=O)[nH]c(=O)n1COCCO`, for which the 50% inhibitory concentration (IC50) was determined as 19.1 µM.

For `CCc1c(Sc2ccccc2)n(COCCO)c(=O)[nH]c1=O`, the IC50 was 0.12 µM.

Consider `Cc1cc(C)cc(Sc2c(C)c(=O)[nH]c(=S)n2COCCO)c1`, for which the IC50 is 0.219 µM.

In the case of `Cc1c(Sc2cccc(C#N)c2)n(COCCO)c(=O)[nH]c1=O`, the 50% inhibitory concentration (IC50) turned out to be 10 µM.

Regarding `Cc1c(Sc2cccc(O)c2)n(COCCO)c(=O)[nH]c1=O`, the IC50 is 81.3 µM.

For the molecule `Cc1c(Sc2cccc(Br)c2)n(COCCO)c(=O)[nH]c1=O`, the IC50 was 5.75 µM.

As to `Cc1ccccc1Sc1c(C)c(=O)[nH]c(=O)n1COCCO`, the IC50 turned out to be 70.8 µM.

For `Cc1c(Sc2ccccc2)n(COCCF)c(=O)[nH]c1=O`, the IC50 was determined as 1.1 µM.

As for `CCc1c(Sc2ccccc2)n(COCc2ccccc2)c(=O)[nH]c1=O`, the IC50 is 0.00589 µM.

Consider `CCCCn1c(Sc2ccccc2)c(C)c(=O)[nH]c1=O`, for which the IC50 is 1.2 µM.

Turning to `Cc1c(O)nc(O)nc1Sc1ccccc1`, the IC50 was 251 µM.

As for `Cc1c(Sc2ccccc2)n(C)c(=O)[nH]c1=O`, the half-maximal inhibitory concentration (IC50) amounted to 151 µM.

As to `CCc1c(Sc2cc(C)cc(C)c2)n(COCc2ccccc2)c(=O)[nH]c1=O`, the IC50 was found to be 0.00282 µM.

Regarding `O=c1[nH]c(=O)n(COCCO)c(Sc2ccccc2)c1Cl`, the IC50 was 30.2 µM.

`O=c1[nH]c(=O)n(COCCO)c(Sc2ccccc2)c1Br`: the IC50 came to 20 µM.

For the molecule `CCc1c(Sc2ccccc2)n(COC(C)C)c(=S)[nH]c1=O`, the IC50 was found to be 0.219 µM.

With `CCc1c(Sc2ccccc2)n(COCCO)c(=S)[nH]c1=O`, the IC50 is 0.11 µM.

Regarding `CC(=O)OCCOCn1c(Sc2ccccc2)c(C)c(=O)[nH]c1=O`, the IC50 is 6.76 µM.

For `Cc1c(Sc2ccccc2)n(COCCOC(=O)c2ccccc2)c(=O)[nH]c1=O`, the IC50 came out at 7.59 µM.

With `Cc1c(Sc2cccc(N)c2)n(COCCO)c(=O)[nH]c1=O`, the IC50 stood at 251 µM.

Consider `Cc1c(Sc2ccccc2)n(COCCO)c(=S)[nH]c1=O`, for which the half-inhibitory concentration (IC50) was found to be 0.977 µM.

Consider `COC(=O)c1c(Sc2ccccc2)n(COCCO)c(=O)[nH]c1=O`, for which the IC50 stood at 6.61 µM.

Take `Cc1c(Sc2cccc(C(N)=O)c2)n(COCCO)c(=O)[nH]c1=O`: the IC50 stood at 309 µM.

In the case of `CC(C)C(=O)c1c(Sc2ccccc2)n(COCCO)c(=O)[nH]c1=O`, the IC50 worked out at 12 µM.

With `CCOCn1c(Sc2ccccc2)c(C2CC2)c(=O)[nH]c1=S`, the IC50 came out at 0.0955 µM.

Take `CCc1c(Sc2ccccc2)n(COCc2ccc(Cl)cc2)c(=S)[nH]c1=O`: the 50% inhibitory concentration (IC50) stood at 0.012 µM.

`CCc1c(Sc2ccccc2)n(COC2CCCCC2)c(=S)[nH]c1=O`: the IC50 was 1.62 µM.

Take `CCOCn1c(Sc2cc(Cl)cc(Cl)c2)c(CC)c(=O)[nH]c1=O`: the IC50 was found to be 0.00741 µM.

As for `CCOCn1c(Sc2cc(C)cc(C)c2)c(CC)c(=O)[nH]c1=S`, the IC50 is 0.00501 µM.

Turning to `CCOCn1c(Sc2cc(Cl)cc(Cl)c2)c(CC)c(=O)[nH]c1=S`, the IC50 is 0.0129 µM.

`CCc1c(Sc2ccccc2)n(COC2CCCCC2)c(=O)[nH]c1=O`: the IC50 is 3.98 µM.

As to `Cc1c(Sc2ccccc2)n(COCCOCc2ccccc2)c(=O)[nH]c1=O`, the IC50 was 20 µM.

`Cc1c(Sc2ccccc2)n(COCCCl)c(=O)[nH]c1=O`: the IC50 was 1.51 µM.

On to `CCOCn1c(Sc2ccccc2)c(CC)c(=O)[nH]c1=O`, for which the IC50 was 0.0191 µM.

With `Cc1c(Sc2ccccc2)n(COCc2ccccc2)c(=O)[nH]c1=O`, the IC50 amounted to 0.0871 µM.

On to `CCOCn1c(Sc2ccccc2)c(C)c(=O)[nH]c1=O`, for which the IC50 stood at 0.331 µM.

Take `COCCOCn1c(Sc2ccccc2)c(C)c(=O)[nH]c1=O`: the IC50 worked out at 8.71 µM.

In the case of `Cc1c(Sc2ccccc2)n(COCCN=[N+]=[N-])c(=O)[nH]c1=O`, the half-maximal inhibitory concentration (IC50) was 5.75 µM.

Take `CCOCn1c(Sc2ccccc2)c(C(C)C)c(=O)[nH]c1=O`: the IC50 turned out to be 0.0102 µM.

`CCn1c(Sc2ccccc2)c(C)c(=O)[nH]c1=O`: the IC50 was determined as 2.19 µM.

Turning to `CC(C)c1c(Sc2ccccc2)n(COCc2ccccc2)c(=O)[nH]c1=O`, the IC50 is 0.00309 µM.

In the case of `COCn1c(Sc2ccccc2)c(C)c(=O)[nH]c1=O`, the IC50 is 2.09 µM.

For `CCOCn1c(Sc2ccccc2)c(C2CC2)c(=O)[nH]c1=O`, the IC50 stood at 0.1 µM.

Regarding `CCCOCn1c(Sc2ccccc2)c(C)c(=O)[nH]c1=O`, the half-maximal inhibitory concentration (IC50) turned out to be 3.31 µM.

With `CCCc1c(Sc2ccccc2)n(COCCO)c(=S)[nH]c1=O`, the half-inhibitory concentration (IC50) was 10 µM.

In the case of `CCc1cccc(Sc2c(C)c(=O)[nH]c(=O)n2COCCO)c1`, the IC50 turned out to be 2.69 µM.

Take `Cc1c(Sc2cccc(Cl)c2)n(COCCO)c(=O)[nH]c1=O`: the IC50 stood at 12.9 µM.

For `O=C(c1ccccc1)c1c(Sc2ccccc2)n(COCCO)c(=O)[nH]c1=O`, the IC50 worked out at 12.9 µM.

For the molecule `O=c1[nH]c(=O)n(COCCO)c(Sc2ccccc2)c1F`, the IC50 turned out to be 100 µM.

With `CCOCn1c(Sc2ccccc2)c(CC)c(=O)[nH]c1=S`, the IC50 came to 0.0263 µM.

Regarding `CCc1c(Sc2cc(Cl)cc(Cl)c2)n(COCCO)c(=O)[nH]c1=O`, the IC50 is 0.0141 µM.

As to `Cc1c(Sc2cccc(C(F)(F)F)c2)n(COCCO)c(=O)[nH]c1=O`, the IC50 is 44.7 µM.

Take `O=c1[nH]c(=O)n(COCCO)c(Sc2ccccc2)c1Cc1ccccc1`: the IC50 came out at 42.7 µM.

As for `CC#Cc1c(Sc2ccccc2)n(COCCO)c(=O)[nH]c1=O`, the concentration for half-maximal inhibition (IC50) came out at 19.1 µM.
